Data as given in doi:10.1101/2020.07.01.182642v1 (biorxiv, 2020).

Key:
CLK3 (R134-T484) [1] = biological target: T1, CLK3 (R134-T484) (Homo sapiens, UniProt P49761); conditions: binder
CLK1 (H148-I484) [2] = biological target: T2, CLK1 (H148-I484) (Homo sapiens, UniProt P49759); conditions: binder
CLK1 (H148-I484) [3] = biological target: CLK1 (H148-I484) (Homo sapiens, UniProt P49759, V324A); conditions: binder
CLK3 (R134-T484) [4] = biological target: T1, CLK3 (R134-T484); conditions: binder; remark: listed apart in the source
CLK3 (R134-T484) [5] = biological target: T3, CLK3 (R134-T484) (Homo sapiens, UniProt P49761, A319V); conditions: binder
CLK1 (full-length) [6] = biological target: CLK1 (full-length) (Homo sapiens, UniProt P49759); experiment: cell-based
CLK1 (full-length) [7] = biological target: CLK1 (full-length) (Homo sapiens, UniProt P49759, V324A); experiment: cell-based
CLK3 (R134-T484) [8] = biological target: T3, CLK3 (R134-T484); experiment: Omnia kinase assay; type: biochemical
CLK1 = CLK1 (Homo sapiens, UniProt P49759); conditions: binder
CLK3 = CLK3 (Homo sapiens, UniProt P49761); conditions: binder
CLK1 (H148-I484) [9] = biological target: T2, CLK1 (H148-I484); conditions: binder; remark: listed apart in the source

T3 sequence (P49761 134-484 A319V): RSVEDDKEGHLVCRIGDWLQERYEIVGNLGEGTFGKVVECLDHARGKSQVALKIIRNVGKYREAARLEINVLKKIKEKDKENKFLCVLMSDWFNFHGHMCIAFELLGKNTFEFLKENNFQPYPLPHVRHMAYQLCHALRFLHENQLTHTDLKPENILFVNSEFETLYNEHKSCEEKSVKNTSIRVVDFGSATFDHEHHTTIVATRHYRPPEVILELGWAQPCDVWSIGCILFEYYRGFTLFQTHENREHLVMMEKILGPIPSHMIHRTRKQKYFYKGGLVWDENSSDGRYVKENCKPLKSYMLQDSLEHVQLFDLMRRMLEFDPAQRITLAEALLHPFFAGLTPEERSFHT
T2 sequence (P49759 148-484): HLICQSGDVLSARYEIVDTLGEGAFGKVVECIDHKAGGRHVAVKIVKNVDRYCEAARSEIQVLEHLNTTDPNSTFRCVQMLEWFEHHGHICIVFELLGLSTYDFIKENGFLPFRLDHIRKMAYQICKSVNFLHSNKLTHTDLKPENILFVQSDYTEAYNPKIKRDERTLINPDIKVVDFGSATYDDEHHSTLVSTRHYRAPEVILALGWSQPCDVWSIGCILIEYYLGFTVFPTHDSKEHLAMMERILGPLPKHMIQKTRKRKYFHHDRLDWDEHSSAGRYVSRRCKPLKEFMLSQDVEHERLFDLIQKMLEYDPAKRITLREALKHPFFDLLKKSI
T1 sequence (P49761 134-484): as the sequence (P49761 134-484 A319V) above, with V186A counted along it
Chain of CLK1 (full-length) (Homo sapiens, UniProt P49759) (P49759 whole entry): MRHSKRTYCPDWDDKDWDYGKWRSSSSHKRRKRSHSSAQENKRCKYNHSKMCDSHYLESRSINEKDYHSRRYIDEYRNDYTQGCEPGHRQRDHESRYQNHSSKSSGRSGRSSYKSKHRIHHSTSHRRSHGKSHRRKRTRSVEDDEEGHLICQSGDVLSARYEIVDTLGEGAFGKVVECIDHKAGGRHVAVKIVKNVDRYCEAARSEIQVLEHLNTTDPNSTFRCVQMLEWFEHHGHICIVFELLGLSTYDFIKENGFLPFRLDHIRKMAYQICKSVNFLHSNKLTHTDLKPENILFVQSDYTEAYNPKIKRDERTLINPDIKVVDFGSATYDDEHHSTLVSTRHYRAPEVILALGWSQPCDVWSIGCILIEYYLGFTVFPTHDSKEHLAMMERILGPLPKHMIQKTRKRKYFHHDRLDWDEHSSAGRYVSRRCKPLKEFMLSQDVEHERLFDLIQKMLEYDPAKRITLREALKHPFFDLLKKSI
Chain of CLK1 (full-length) (Homo sapiens, UniProt P49759, V324A) (P49759 whole entry V324A): as the sequence (P49759 whole entry) above, with V324A counted along it
Chain of CLK1 (H148-I484) (Homo sapiens, UniProt P49759, V324A) (P49759 148-484 V324A): as the sequence (P49759 148-484) above, with V177A counted along it
Chain of CLK1 (P49759 whole entry): as the sequence (P49759 whole entry) above
Chain of CLK3 (P49761 whole entry): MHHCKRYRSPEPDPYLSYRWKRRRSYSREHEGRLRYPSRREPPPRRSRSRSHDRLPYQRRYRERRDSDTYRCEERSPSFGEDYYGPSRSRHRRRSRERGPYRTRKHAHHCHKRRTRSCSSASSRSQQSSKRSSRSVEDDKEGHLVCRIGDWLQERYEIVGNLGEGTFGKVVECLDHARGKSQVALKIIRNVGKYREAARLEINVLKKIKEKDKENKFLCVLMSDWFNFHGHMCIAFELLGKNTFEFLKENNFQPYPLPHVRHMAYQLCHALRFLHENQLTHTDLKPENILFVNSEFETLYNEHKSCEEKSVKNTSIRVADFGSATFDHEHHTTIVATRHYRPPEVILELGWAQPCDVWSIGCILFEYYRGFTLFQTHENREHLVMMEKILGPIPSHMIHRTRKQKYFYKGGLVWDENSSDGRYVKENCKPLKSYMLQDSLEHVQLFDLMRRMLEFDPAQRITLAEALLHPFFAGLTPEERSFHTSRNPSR

In the case of `CN[C@@H]1C[C@H]2O[C@@](C)([C@@H]1OC)n1c3ccccc3c3c4c(c5c6ccccc6n2c5c31)C(=O)NC4` [compound 6, staurosporine], the “wild type CLK3” value (CLK3 (R134-T484) [1]) is reported as 4.7 °C.

For `CN1CCC2(CC1)NC(=O)c1c(c3ccc(Cl)c(Cl)c3n1C)C2C#N` (stereo not shown) [compound 16, KH-CARB10], the “ΔTm wild type CLK1” value (CLK1 (H148-I484) [2]) was 6.1 °C, the “ΔTm V324A CLK1” value (CLK1 (H148-I484) [3]) was 1.8 °C and the “ΔTm wild type CLK3” value (CLK3 (R134-T484) [4]) was 1.1 °C. For the same molecule, the “ΔTm A319V CLK3” value (CLK3 (R134-T484) [5]) was 5.0 °C.

`O=C1NCc2ccc3c(-c4cccc(Cl)c4)c[nH]c3c21` [compound 11, KuWal151] gave a Ki (CLK1 (full-length) [6]) of 228 ± 80 nM and a Ki (CLK1 (full-length) [7]) of 878 ± 46 nM.

In the case of `CN1CCN(C(=O)C(C)(C)c2ccc(C(=O)Nc3cn4cc(-c5ccncc5)ccc4n3)cc2)CC1` [compound 10, T3-CLK], the Ki (CLK1 (full-length) [6]) is reported as 1 ± 0.1 nM and the Ki (CLK1 (full-length) [7]) is reported as 2.3 ± 0.1 nM.

For `CC(=O)c1cccc(-c2cnc3ccc(NC(CO)C(C)C)nn23)c1` (stereo not shown) [compound 9, K00518], the Ki (CLK1 (full-length) [6]) was 943 ± 640 nM and the Ki (CLK1 (full-length) [7]) was 2640 ± 1800 nM.

With `CC(=O)c1cccc(-c2cnc3ccc(NC(CO)C(C)C)nn23)c1` (stereo not shown) [compound 9] the “ΔTm wild type CLK1” value (CLK1 (H148-I484) [2]) was 6.8 °C, the “ΔTm V324A CLK1” value (CLK1 (H148-I484) [3]) was 3.9 °C and the “ΔTm wild type CLK3” value (CLK3 (R134-T484) [4]) was 1.8 °C. The “ΔTm A319V CLK3” value (CLK3 (R134-T484) [5]) was 8.6 °C.

For `COC(=N)c1nc2ccc3ncnc(Nc4ccc(OC)cc4F)c3c2s1` [compound 13, ETH1610], the “ΔTm wild type CLK1” value (CLK1 (H148-I484) [2]) was 10.3 °C, the “ΔTm V324A CLK1” value (CLK1 (H148-I484) [3]) was 3.8 °C and the “ΔTm wild type CLK3” value (CLK3 (R134-T484) [4]) was 3.4 °C. The “ΔTm A319V CLK3” value (CLK3 (R134-T484) [5]) was 9.2 °C.

For `O=c1c2c(ccc3nc(-c4cccnc4)sc32)ncn1C1CC1` [compound 12], the “ΔTm wild type CLK1” value (CLK1 (H148-I484) [2]) was 9.5 °C, the “ΔTm V324A CLK1” value (CLK1 (H148-I484) [3]) was 3.0 °C and the “ΔTm wild type CLK3” value (CLK3 (R134-T484) [4]) was 3.6 °C. The “ΔTm A319V CLK3” value (CLK3 (R134-T484) [5]) was 5.5 °C.

In the case of `Cn1c2c(c3ccc(Cl)c(Cl)c31)C(C#N)C1(CCNCC1)NC2=O` (racemic) [compound 3, KH-CARB13], the Ki (CLK3 (R134-T484) [8]) is reported as 850 ± 300 nM, the Ki (CLK1 (full-length) [7]) is reported as 2810 ± 670 nM and the “ΔTm wild type CLK1” value (CLK1 (H148-I484) [2]) is reported as 7.4 °C. The “ΔTm wild type CLK3” value (CLK3 (R134-T484) [4]) was 1.2 °C, the “ΔTm A319V CLK3” value (CLK3 (R134-T484) [5]) was 5.8 °C and the “ΔTm (°C) 3” value (CLK1) was 7.0 degC. The “ΔTm (°C) 3” value (CLK3) was 2.2 degC.

Molecule `O=c1c2c(ccc3nc(-c4cccnc4)sc32)ncn1C1CC1` [compound 12, FC162] has a Ki (CLK1 (full-length) [6]) of 1860 ± 1200 nM and a Ki (CLK1 (full-length) [7]) of 5450 ± 790 nM.

For `O=C1NCc2ccc3c(-c4cccc(Cl)c4)c[nH]c3c21` [compound 11], the “ΔTm wild type CLK1” value (CLK1 (H148-I484) [2]) was 9.4 °C, the “ΔTm V324A CLK1” value (CLK1 (H148-I484) [3]) was 5.1 °C and the “ΔTm wild type CLK3” value (CLK3 (R134-T484) [4]) was 1.7 °C. The “ΔTm A319V CLK3” value (CLK3 (R134-T484) [5]) was 4.7 °C.

`Cn1cc(-c2ccc3occ(-c4cccc(-c5ccncc5)c4)c3n2)cn1` [compound 5, MU1210] was tested, and the “ΔTm wild type CLK1” value (CLK1 (H148-I484) [2]) was 9.3 °C, the “ΔTm V324A CLK1” value (CLK1 (H148-I484) [3]) was 5.94 °C and the “ΔTm wild type CLK3” value (CLK3 (R134-T484) [4]) was 1.5 °C. For the same molecule, the “ΔTm A319V CLK3” value (CLK3 (R134-T484) [5]) was 8.27 °C.

With `CN1CCN(C(=O)C(C)(C)c2ccc(C(=O)Nc3cn4cc(-c5ccncc5)ccc4n3)cc2)CC1` [compound 10] the “ΔTm wild type CLK1” value (CLK1 (H148-I484) [2]) was 18.7 °C, the “ΔTm V324A CLK1” value (CLK1 (H148-I484) [3]) was 13.7 °C and the “ΔTm wild type CLK3” value (CLK3 (R134-T484) [4]) was 13.7 °C. For the same molecule, the “ΔTm A319V CLK3” value (CLK3 (R134-T484) [5]) was 17.3 °C.

In the case of `CCOC(=O)c1c(/C(C#N)=C\N)c2ccc(Cl)c(Cl)c2n1C` [compound 7, KH-CB19], the “wild type CLK1” value (CLK1 (H148-I484) [9]) is reported as 15.0 °C and the “wild type CLK3” value (CLK3 (R134-T484) [1]) is reported as 8.6 °C.

In the case of `Cn1cc(-c2ccc3occ(-c4cccc(Oc5ccccc5)c4)c3n2)cn1` [compound 14, VN412], the “ΔTm wild type CLK1” value (CLK1 (H148-I484) [2]) is reported as 12.3 °C, the “ΔTm V324A CLK1” value (CLK1 (H148-I484) [3]) is reported as 7.8 °C and the “ΔTm wild type CLK3” value (CLK3 (R134-T484) [4]) is reported as 4.8 °C. For the same molecule, the “ΔTm A319V CLK3” value (CLK3 (R134-T484) [5]) was 10.1 °C.

With `Nc1ncnc2c1c(I)cn2C1OC(CO)C(O)C1O` (stereo not shown) [compound 18, iodotubercidin] the “ΔTm wild type CLK1” value (CLK1 (H148-I484) [2]) was 13.1 °C, the “ΔTm V324A CLK1” value (CLK1 (H148-I484) [3]) was 9.7 °C and the “ΔTm wild type CLK3” value (CLK3 (R134-T484) [4]) was 7.9 °C. The “ΔTm A319V CLK3” value (CLK3 (R134-T484) [5]) was 14.1 °C.

For `CCOc1ccc2c(-c3ccnc(Nc4cc(OC)cc(C(F)(F)F)c4)n3)cnn2n1` [compound 8, GW807982X], the Ki (CLK1 (full-length) [6]) was 36 ± 20 nM, the Ki (CLK1 (full-length) [7]) was 3930 ± 1100 nM and the “wild type CLK1” value (CLK1 (H148-I484) [9]) was 9 °C. For the same molecule, the “wild type CLK3” value (CLK3 (R134-T484) [1]) was 2.0 °C.
